Patent publication US20240180880A1, “METHODS OF USING EHMT2 INHIBITORS IN TREATING OR PREVENTING BLOOD DISORDERS” (Epizyme, Inc., priority 2017, published 2024)
Where two headings read alike, the source gives them in different places.

Tested on: 284 cell lines
Assay: cells
Experimental: A screen of 284 cell lines to assess the antiproliferative effect of EHMT2 inhibition was conducted by treating cell lines in 384-well format with a half-log step dilutions of Compound 205 over 10 concentrations with a maximum concentration of 0.1% v/v DMSO. Cells were plated on Day 0 and treated with compound on Day 1. Culture medium was replaced on day 7 and cells redosed. After 10-day incubation, cells were fixed and stained with nuclear dye. Automated fluorescence microscopy was carried out using a Molecular Devices ImageXpress Micro XL high-content imager, and images were collected with a 4× objective. 16-bit TIFF images were acquired and analyzed with MetaXpress 5.1.0.41 software. Cell proliferation was measured by the fluorescence intensity of the incorporated nuclear dye. Cell count IC50 is the test compound concentration at 50% of maximal response of the untreated control.

CNc1cc(C)nc(Nc2ccc(OC)c(OCCCN3CCCC3)c2)n1 [Compound 205]
IC50 (Homo sapiens, T98G, read-out: Cell Count IC50, T98G, Central Nervous System, Glioma): > 10 µM | IC50 (Homo sapiens, TCC-SUP, read-out: Cell Count IC50, TCCSUP, Bladder): 0.1 to 1 µM | IC50 (Homo sapiens, THP-1, read-out: Cell Count IC50, Thp 1, Hematopoietic, Leukemia): 1 to 10 µM | IC50 (Homo sapiens, U2OS, read-out: Cell Count IC50, U2OS, Bone, Osteosarcoma): 1 to 10 µM | IC50 (Homo sapiens, U138-MG, read-out: Cell Count IC50, U-138MG, Central Nervous System, Glioma): 1 to 10 µM | IC50 (Homo sapiens, U-87 MG, read-out: Cell Count IC50, U-87 MG, Central Nervous System, Glioma): 1 to 10 µM | IC50 (Homo sapiens, U-118-MG, read-out: Cell Count IC50, U-118 MG, Central Nervous System, Glioma): 0.1 to 1 µM | IC50 (Homo sapiens, UMUC3, read-out: Cell Count IC50, UM-UC-3, Bladder): 1 to 10 µM | IC50 (Homo sapiens, WM 266-4, read-out: Cell Count IC50, WM-266-4, Skin, Melanoma): 0.1 to 1 µM | IC50 (Homo sapiens, WiDr, read-out: Cell Count IC50, WiDr, Colon): 1 to 10 µM | IC50 (Homo sapiens, YAPC, read-out: Cell Count IC50, YAPC, Pancreas): > 10 µM | IC50 (Homo sapiens, ZR-75-1, read-out: Cell Count IC50, ZR-75-1, Breast): > 10 µM | IC50 (Hs 445, read-out: Cell Count IC50, Hs 445, Hematopoietic, Lymphoma): 1 to 10 µM | IC50 (Hs766T, read-out: Cell Count IC50, Hs 766T, Pancreas): > 10 µM | IC50 (KHOS-240S, read-out: Cell Count IC50, KHOS-240S, Bone, Osteosarcoma): 1 to 10 µM | IC50 (KPL-1, read-out: Cell Count IC50, KPL-1, Breast): > 10 µM | IC50 (MS751, read-out: Cell Count IC50, MS751, Female GU, Cervix): 1 to 10 µM | IC50 (OCUG-1, read-out: Cell Count IC50, OCUG-1, Liver): 0.1 to 1 µM | IC50 (OE21, read-out: Cell Count IC50, OE21, Head and Neck): 1 to 10 µM | IC50 (RKOAS451, read-out: Cell Count IC50, RKO-AS45-1, Colon): 1 to 10 µM | IC50 (SKO-007, read-out: Cell Count IC50, SKO-007, Hematopoietic, Myeloma): 1 to 10 µM | IC50 (TE 381.T, read-out: Cell Count IC50, TE 381.T, Soft & Connective Tissue, Sarcoma): 1 to 10 µM | IC50 (read-out: Cell Count IC50, 5637, Bladder): > 10 µM | IC50 (read-out: Cell Count IC50, A7, Skin, Melanoma): > 10 µM | IC50 (read-out: Cell Count IC50, A388, Skin, Head and Neck): 1 to 10 µM | IC50 (read-out: Cell Count IC50, AGS, Stomach): 1 to 10 µM | IC50 (read-out: Cell Count IC50, AUS65, Breast): 1 to 10 µM | IC50 (read-out: Cell Count IC50, BC-1, Hematopoietic, Lymphoma): 0.1 to 1 µM | IC50 (read-out: Cell Count IC50, C32, Skin, Melanoma): 1 to 10 µM | IC50 (read-out: Cell Count IC50, DB, Hematopoietic, Lymphoma): 0.01 to 0.1 µM | IC50 (read-out: Cell Count IC50, DK-MG, Central Nervous System, Glioma): 1 to 10 µM | IC50 (read-out: Cell Count IC50, EB2, Hematopoietic, Lymphoma): 1 to 10 µM | IC50 (read-out: Cell Count IC50, EB-3, Hematopoietic, Lymphoma): > 10 µM | IC50 (read-out: Cell Count IC50, EM-2, Hematopoietic, Leukemia): 1 to 10 µM | IC50 (read-out: Cell Count IC50, H4, Central Nervous System, Glioma): > 10 µM | IC50 (read-out: Cell Count IC50, HLE, Liver): > 10 µM | IC50 (read-out: Cell Count IC50, HLF, Liver): 1 to 10 µM | IC50 (read-out: Cell Count IC50, HOS, Bone, Osteosarcoma): 0.1 to 1 µM | IC50 (read-out: Cell Count IC50, HT-3, Female GU, Cervix): > 10 µM | IC50 (read-out: Cell Count IC50, HT, Hematopoietic, Lymphoma): 1 to 10 µM | IC50 (read-out: Cell Count IC50, Hs 229.T, Lung, NSCLC): > 10 µM | IC50 (read-out: Cell Count IC50, Hs 611.T, Hematopoietic, Lymphoma): 1 to 10 µM | IC50 (read-out: Cell Count IC50, Hs 688(A).T, Skin, Melanoma): 1 to 10 µM | IC50 (read-out: Cell Count IC50, Hs 729, Soft & Connective Tissue, Sarcoma): 0.01 to 0.1 µM | IC50 (read-out: Cell Count IC50, Hs 821.T, Soft & Connective Tissue, Sarcoma): 1 to 10 µM | IC50 (read-out: Cell Count IC50, Hs 852.T, Skin, Melanoma): > 10 µM | IC50 (read-out: Cell Count IC50, Hs 888.Sk, Bone, Osteosarcoma): > 10 µM | IC50 (read-out: Cell Count IC50, Hs 934.T, Skin, Melanoma): > 10 µM | IC50 (read-out: Cell Count IC50, Hs 936.T(C1), Skin, Melanoma): 1 to 10 µM | IC50 (read-out: Cell Count IC50, IM-9, Hematopoietic, Myeloma): > 10 µM | IC50 (read-out: Cell Count IC50, J82, Bladder): 1 to 10 µM | IC50 (read-out: Cell Count IC50, JAR, Placenta): > 10 µM | IC50 (read-out: Cell Count IC50, KLE, Female GU, Uterus): > 10 µM | IC50 (read-out: Cell Count IC50, MT-3, Colon): 0.1 to 1 µM | IC50 (read-out: Cell Count IC50, MX1, Hematopoietic, Leukemia): > 10 µM | IC50 (read-out: Cell Count IC50, NAMALWA, Hematopoietic, Lymphoma): 1 to 10 µM | IC50 (read-out: Cell Count IC50, PA-1, Female GU, Ovary): 1 to 10 µM | IC50 (read-out: Cell Count IC50, PC-3, Prostate): > 10 µM | IC50 (read-out: Cell Count IC50, RD, Soft & Connective Tissue, Sarcoma): 1 to 10 µM | IC50 (read-out: Cell Count IC50, RKO, Colon): 1 to 10 µM | IC50 (read-out: Cell Count IC50, SH-4, Skin, Melanoma): 1 to 10 µM | IC50 (read-out: Cell Count IC50, SK-PN-DW, Soft & Connective Tissue, Sarcoma): 1 to 10 µM | IC50 (read-out: Cell Count IC50, SR, Hematopoietic, Lymphoma): 1 to 10 µM | IC50 (read-out: Cell Count IC50, T24, Bladder): > 10 µM | IC50 (read-out: Cell Count IC50, TE 125.T, Soft & Connective Tissue, Sarcoma): 0.1 to 1 µM | IC50 (read-out: Cell Count IC50, TF-1, Hematopoietic, Leukemia): 1 to 10 µM | IC50 (read-out: Cell Count IC50, TT, Endocrine, Thyroid): 1 to 10 µM | IC50 (read-out: Cell Count IC50, TUR, Hematopoietic, Lymphoma): 1 to 10 µM | IC50 (read-out: Cell Count IC50, U266B1, Hematopoietic, Myeloma): 1 to 10 µM | IC50 (read-out: Cell Count IC50, VA-ES-BJ, Soft & Connective Tissue, Sarcoma): > 10 µM | IC50 (read-out: Cell Count IC50, Y79, Eve, Eye): > 10 µM
